Reference: ChEMBL document CHEMBL1123766, “2-Amino- and 2-guanidino-1,2,3,4-tetrahydro-1,4-epoxynaphthalenes as conformationally defined analogues of alpha-adrenergic agents” (J Med Chem, 1987)

Columns and labels:
[1] = target: T1, Adrenergic receptor alpha-2 (Rattus norvegicus) (UniProt P22086+P19328+P22909); experiment: Approximate efficacy based on maximal effect produced by […] was determined against the alpha-2 adrenergic receptor; assay type: protein assay
[2] = target: T1, Adrenergic receptor alpha-2 (Rattus norvegicus); experiment: Evaluated for alpha-2 adrenergic receptor activity in the field stimulated rat vas deferens preparation.* Stimulatory effects blocked by prazosin (78 nM).; assay type: tissue-based
[3] = target: T1, Adrenergic receptor alpha-2 (Rattus norvegicus); experiment: Evaluated for alpha-2 adrenergic receptor activity in the field stimulated rat vas deferens preparation; assay type: tissue-based
[4] = target: T1, Adrenergic receptor alpha-2 (Rattus norvegicus); experiment: Evaluated for alpha-2 adrenergic receptor activity in the field stimulated rat vas deferens preparation.*-confirmed by pretreatment with reserpine (3 mg/kg) 16 hr prior to sacrifice. Stimulatory effects blocked by prazosin (78 nM).
[5] = target: T1, Adrenergic receptor alpha-2 (Rattus norvegicus); experiment: Evaluated for alpha-2 adrenergic receptor activity in the field stimulated rat vas deferens preparation.; assay type: tissue-based
[6] = target: T1, Adrenergic receptor alpha-2 (Rattus norvegicus); experiment: Evaluated for alpha-2 adrenergic receptor activity in the field stimulated rat vas deferens preparation.* Confirmed by pretreatment with reserpine (3 mg/kg) 16 hr prior to sacrifice. Stimulatory effects blocked by prazosin (78 nM). Value estimated in the presen

Compound | Efficacy [1] | pD2 [3] | also measured
COc1ccc(OC)c2c1C1CC(N=C(N)N)C2O1 (centres undefined) | 0.7 | – | pD2 [2]: 4.75
COc1ccc(OC)c(C(O)C(C)N)c1 (centres undefined) | 1 | 6.48 | –
COc1ccc(OC)c2c1C1C[C@H](N)C2O1 (some centres undefined) | 0.9 | – | pD2 [4]: 5.08
COc1ccc(OC)c2c1C1C[C@@H](N)C2O1 (some centres undefined) | – | – | pD2 [5]: 3.49
N[C@H]1CC2OC1c1ccccc12 (some centres undefined) | – | – | pD2 [6]: 4.9
N[C@@H]1CC2OC1c1ccccc12 (some centres undefined) | – | < 3 | –
